Source: patent publication US12318364B2, “Isoflavonoid compositions and methods for the treatment of cancer” (Aardvark Therapeutics, Inc., priority 2010, dated 2025)
Values after ≈ are worked out from the molar mass of the structure shown.

Assay: Solubility limit of compound d-4 in aqueous Captisol (SBE7-β-CD) solution
Format: physicochemical
Settings: at 25° C., 20% Captisol® in water

Work on `Oc1ccc([C@H]2c3ccc(O)cc3OC[C@H]2c2ccc(O)cc2)cc1` (relative stereo) [Compound d-4, d-cis-3-(4-hydroxyphenyl)-4-(4-hydroxyphenyl)chroman-7-ol] yielded a solubility limit of 27.9 mg/mL (≈ 83.4 mM).
